Reference: US20240262848A1, “HETEROCYCLIC COMPOUNDS, COMPOSITIONS THEREOF, AND METHODS OF TREATMENT THEREWITH” (BeiGene, Ltd., priority 2022, published 2024)

Tests used:
[1] = target: GST-tagged GDP-loaded KRAS G12D (amin acids 1-188) (Homo sapiens, UniProt P01116, G12D); test: KRAS G12D probe displacement assay (TR-FRET); assay type: binding; settings: Table 5; KRAS G12D 0.5 nM, biotinylated probe 2 4 nM
Procedure: Plates are incubated at 24° C. for 1 hr.

[2] = system: pERK1/2(THR202/TYR204) level in AsPC-1 cell line; test: KRAS G12D pERK assay in AsPC-1 cells (HTRF); assay type: cell-based; settings: Homo sapiens, ASPC1, Table 5, 2 h compound treatment
Procedure: AsPC-1 cell line was used in this study. Cells were maintained in RPMI-1640 supplemented with 10% fetal bovine serum (Thermo Fisher), 50 units/ml, penicillin and streptomycin (Thermo Fisher) and kept at 37° C. in a humidified atmosphere of 5% CO2 in air. Cells were reinstated from frozen stocks that were laid down within 30 passages from the original cells purchased. 30000 cells per well were seeded into a 96-well plate and incubated overnight. Cells were treated with a 10-point dilution series. The final compound concentration is from 0 to 10 μM. After 2 h compound treatment, cells were lysed, and the pERK1/2(THR202/TYR204) level in the cell lysates was detected by HTRF kit (Cisbio). In brief, a total of 16 μL of cell lysate from each well of a 96-well plate was transferred to a 384-well white assay plate. Lysate from each well was incubated with 2 μL of Eu3+-cryptate (donor) labeled anti-phospho-ERK1/2 and 2 μL of D2 (acceptor) labeled anti-phospho-ERK1/2 antibodies (Cisbio) overnight in dark at room temperature. When the donor and acceptor are in close proximity, excitation of the donor with laser triggers a Fluorescence Resonance Energy Transfer (FRET) towards the acceptor, which in turn fluoresces at 655 nm wavelength. FRET signals were measured using a PHERAstar FSX reader (BMG Labtech). IC50 determination was performed by fitting the curve of percent inhibition versus the log of the inhibitor concentration using Dotmatics.

Chain of GST-tagged GDP-loaded KRAS G12D (amin acids 1-188) (P01116 1-188 isoform P01116-2 G12D): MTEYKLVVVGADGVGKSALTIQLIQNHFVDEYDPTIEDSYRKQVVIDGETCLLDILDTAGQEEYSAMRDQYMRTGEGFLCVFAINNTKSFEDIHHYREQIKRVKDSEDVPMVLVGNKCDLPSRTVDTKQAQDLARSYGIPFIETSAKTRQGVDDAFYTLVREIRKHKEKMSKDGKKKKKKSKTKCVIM

Structure (SMILES) | IC50 [1] | IC50 [2]
CN(C)CCN1c2nc(OC[C@@]34CCCN3C[C@H](F)C4)nc3c(F)c(-c4cc(N)cc(Cl)c4C(F)(F)F)nc(c23)OCCC12CC2 [Example 43, 3-chloro-5-(11-(2-(dimethylamino)ethyl)-4-fluoro-2-(((2R,7aS)-2-fluorotetrahydro-1H-pyrrolizin-7a(5H)-yl)methoxy)-8,9-dihydro-11H-7-oxa-1,3,6,11-tetraazaspiro[cycloocta[de]naphthalene-10,1′-cyclopropan]-1(11a), 2,3a, 4,6-pentaen-5-yl)-4-(trifluoromethyl)aniline] | 0.73 nM | 92 nM
CNCCN1c2nc(OC[C@@]34CCCN3C[C@H](F)C4)nc3c(F)c(-c4cc(N)cc(Cl)c4C(F)(F)F)nc(c23)OCC12CCC2 [Example 36, 3-chloro-5-(4′-fluoro-2′-(((2R,7aS)-2-fluorotetrahydro-1H-pyrrolizin-7a(5H)-yl)methoxy)-10′-(2-(methylamino)ethyl)-8′H, 10′H-7′-oxa-1′,3′,6′,10′-tetraazaspiro[cyclobutane-1,9′-cyclohepta[de]naphthalen]-1′(10a′), 2′0.3a′, 3 al′(6a′), 5′-pentaen-5′-yl)-4-(trifluoromethyl)aniline] | 1.1 nM | 2160 nM
CNCCN1c2nc(OC[C@@]34CCCN3C[C@H](F)C4)nc3c(F)c(-c4cc(N)cc(Cl)c4C(F)(F)F)nc(c23)O[C@H]2CCCC[C@@H]21 [Example 48, 3-chloro-5-((7aS,11aS)-4-fluoro-2-(((2R,7aS)-2-fluorotetrahydro-1H-pyrrolizin-7a(5H)-yl)methoxy)-12-(2-(methylamino)ethyl)-7a, 8,10,11,11a, 12-hexahydro-9H-7-oxa-1,3,6,12-tetraazapleiaden-5-yl)-4-(trifluoromethyl)aniline] | 20 nM | 3380 nM
CNCCN1c2nc(OC[C@@]34CCCN3C[C@H](F)C4)nc3c(F)c(-c4cc(N)cc(Cl)c4C(F)(F)F)nc(c23)OCCC12CC2 [Example 42, 3-chloro-5-(4-fluoro-2-(((2R,7aS)-2-fluorotetrahydro-1H-pyrrolizin-7a(5H)-yl)methoxy)-11-(2-(methylamino)ethyl)-8,9-dihydro-11H-7-oxa-1,3,6,11-tetraazaspiro[cycloocta[de]naphthalene-10,1′-cyclopropan]-1(11a), 2,3a, 4,6-pentaen-5-yl)-4-(trifluoromethyl)aniline] | 0.17 nM | 141 nM
CN(C)CCN1c2nc(OC[C@@]34CCCN3C[C@H](F)C4)nc3c(F)c(-c4cc(N)cc(Cl)c4C(F)(F)F)nc(c23)OCC12CCC2 [Example 37, 3-chloro-5-(10′-(2-(dimethylamino)ethyl)-4′-fluoro-2′-(((2R,7aS)-2-fluorotetrahydro-1H-pyrrolizin-7a(5H)-yl)methoxy)-8′H, 10′H-7′-oxa-1′,3′,6′,10′-tetraazaspiro[cyclobutane-1,9′-cyclohepta[de]naphthalen]-1′(10a′), 2′,3a′, 3 al′(6a′), 5′-pentaen-5′-yl)-4-(trifluoromethyl)aniline] | 2.3 nM | 639 nM
CC(CN(C)C)N1CCCOc2nc(-c3cc(N)cc(Cl)c3C(F)(F)F)c(F)c3nc(OC[C@@]45CCCN4C[C@H](F)C5)nc1c23 (stereo partly drawn) [Example 40, 3-chloro-5-(11-(1-(dimethylamino)propan-2-yl)-4-fluoro-2-(((2R,7aS)-2-fluorotetrahydro-1H-pyrrolizin-7a(5H)-yl)methoxy)-8,9,10,11-tetrahydro-7-oxa-1,3,6,11-tetraazacycloocta[de]naphthalen-5-yl)-4-(trifluoromethyl)aniline] | 7.6 nM | 2000 nM
